Legend:
[1] = target: LIM domain kinase 2 (Homo sapiens) (UniProt P53671); details: Compound concentration 100.0 nM
[2] = target: Muscle, skeletal receptor tyrosine-protein kinase (Homo sapiens) (UniProt O15146); details: Compound concentration 100.0 nM
[3] = target: Activin receptor type-2A (Homo sapiens) (UniProt P27037); details: Compound concentration 100.0 nM
[4] = test system: Phosphatidylinositol 4,5-bisphosphate 3-kinase catalytic subunit alpha isoform (Homo sapiens), P42336 [C420R]; details: Compound concentration 100.0 nM
[5] = target: Mitogen-activated protein kinase 3 (Homo sapiens) (UniProt P27361); details: Compound concentration 100.0 nM
Sequence of Mitogen-activated protein kinase 3 (Homo sapiens) (P27361 whole entry): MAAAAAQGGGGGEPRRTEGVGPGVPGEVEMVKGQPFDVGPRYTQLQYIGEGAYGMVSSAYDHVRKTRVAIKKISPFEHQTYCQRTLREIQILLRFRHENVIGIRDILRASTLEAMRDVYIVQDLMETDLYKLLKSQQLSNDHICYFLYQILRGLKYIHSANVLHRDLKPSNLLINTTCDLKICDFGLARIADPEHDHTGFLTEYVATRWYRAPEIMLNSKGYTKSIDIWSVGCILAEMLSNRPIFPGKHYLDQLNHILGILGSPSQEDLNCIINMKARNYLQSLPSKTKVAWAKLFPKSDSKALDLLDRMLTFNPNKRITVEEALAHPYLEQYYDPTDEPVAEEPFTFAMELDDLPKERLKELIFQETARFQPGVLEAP

[6] = target: Death-associated protein kinase 1 (Homo sapiens) (UniProt P53355); details: Compound concentration 100.0 nM
[7] = test system: Hepatocyte growth factor receptor (Homo sapiens), P08581 [Y1235D]; details: Compound concentration 100.0 nM
[8] = target: Tyrosine-protein kinase JAK1 (Homo sapiens) (UniProt P23458); details: Compound concentration 100.0 nM
[9] = target: Cyclin-dependent kinase 13 (Homo sapiens) (UniProt Q14004); details: Compound concentration 100.0 nM
[10] = test system: Receptor-type tyrosine-protein kinase FLT3 (Homo sapiens), P36888 [UNDEFINED MUTATION]; details: Compound concentration 100.0 nM
Sequence of Receptor-type tyrosine-protein kinase FLT3 (Homo sapiens), P36888 [UNDEFINED MUTATION] (P36888 whole entry, looked up, change not shown): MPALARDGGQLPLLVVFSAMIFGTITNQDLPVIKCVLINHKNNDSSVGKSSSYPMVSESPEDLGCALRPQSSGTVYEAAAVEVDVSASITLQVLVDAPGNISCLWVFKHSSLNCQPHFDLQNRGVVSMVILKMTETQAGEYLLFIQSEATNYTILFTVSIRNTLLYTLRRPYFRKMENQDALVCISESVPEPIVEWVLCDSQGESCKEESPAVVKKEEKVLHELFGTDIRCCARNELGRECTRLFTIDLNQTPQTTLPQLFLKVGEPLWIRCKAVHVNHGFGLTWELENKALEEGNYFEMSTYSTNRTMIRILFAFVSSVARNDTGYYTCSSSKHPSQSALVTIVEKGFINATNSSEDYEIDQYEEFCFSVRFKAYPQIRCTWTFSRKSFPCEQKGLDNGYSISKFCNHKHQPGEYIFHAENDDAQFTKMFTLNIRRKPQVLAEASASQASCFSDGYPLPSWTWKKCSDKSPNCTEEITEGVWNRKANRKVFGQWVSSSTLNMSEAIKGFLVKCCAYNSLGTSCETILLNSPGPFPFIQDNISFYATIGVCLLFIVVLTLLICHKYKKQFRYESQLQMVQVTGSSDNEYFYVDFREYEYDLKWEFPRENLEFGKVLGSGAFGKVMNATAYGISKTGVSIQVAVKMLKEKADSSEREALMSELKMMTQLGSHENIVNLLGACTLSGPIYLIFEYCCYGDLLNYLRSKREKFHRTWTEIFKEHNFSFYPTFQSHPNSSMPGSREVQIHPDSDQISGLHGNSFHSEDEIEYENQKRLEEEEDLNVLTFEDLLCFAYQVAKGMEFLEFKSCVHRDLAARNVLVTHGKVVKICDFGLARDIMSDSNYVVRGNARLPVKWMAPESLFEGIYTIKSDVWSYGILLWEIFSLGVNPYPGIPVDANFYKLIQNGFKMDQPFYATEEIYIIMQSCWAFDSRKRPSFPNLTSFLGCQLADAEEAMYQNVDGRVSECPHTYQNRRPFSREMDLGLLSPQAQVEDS

[11] = target: Dual specificity protein kinase CLK3 (Homo sapiens) (UniProt P49761); details: Compound concentration 100.0 nM
Sequence of Dual specificity protein kinase CLK3 (Homo sapiens) (P49761 whole entry, looked up): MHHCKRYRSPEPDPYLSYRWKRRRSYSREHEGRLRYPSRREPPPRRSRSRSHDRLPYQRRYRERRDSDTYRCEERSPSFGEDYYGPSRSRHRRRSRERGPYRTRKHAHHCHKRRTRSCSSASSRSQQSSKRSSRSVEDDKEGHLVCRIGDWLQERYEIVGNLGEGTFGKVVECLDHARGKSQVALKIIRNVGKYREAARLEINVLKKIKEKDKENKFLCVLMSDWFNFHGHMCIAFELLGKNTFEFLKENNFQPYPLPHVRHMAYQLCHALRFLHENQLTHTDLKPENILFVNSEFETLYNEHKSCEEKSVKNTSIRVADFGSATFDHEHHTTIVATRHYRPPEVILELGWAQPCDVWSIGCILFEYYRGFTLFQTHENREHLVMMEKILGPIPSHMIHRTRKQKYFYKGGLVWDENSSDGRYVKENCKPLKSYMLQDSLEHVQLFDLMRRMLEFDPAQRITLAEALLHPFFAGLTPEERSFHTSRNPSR

[12] = target: Testis-specific serine/threonine-protein kinase 1 (Homo sapiens) (UniProt Q9BXA7); details: Compound concentration 100.0 nM
[13] = target: cAMP-dependent protein kinase catalytic subunit PRKX (Homo sapiens) (UniProt P51817); details: Compound concentration 100.0 nM
[14] = target: Cyclin-dependent kinase-like 3 (Homo sapiens) (UniProt Q8IVW4); details: Compound concentration 100.0 nM
[15] = target: Mitogen-activated protein kinase 7 (Homo sapiens) (UniProt Q13164); details: Compound concentration 100.0 nM
[16] = target: Serine/threonine-protein kinase PLK1 (Homo sapiens) (UniProt P53350); details: Compound concentration 100.0 nM
[17] = target: Serine/threonine-protein kinase TBK1 (Homo sapiens) (UniProt Q9UHD2); details: Compound concentration 100.0 nM
[18] = target: Serine/threonine-protein kinase B-raf (Homo sapiens) (UniProt P15056); details: Compound concentration 100.0 nM
Sequence of Serine/threonine-protein kinase B-raf (Homo sapiens) (P15056 whole entry): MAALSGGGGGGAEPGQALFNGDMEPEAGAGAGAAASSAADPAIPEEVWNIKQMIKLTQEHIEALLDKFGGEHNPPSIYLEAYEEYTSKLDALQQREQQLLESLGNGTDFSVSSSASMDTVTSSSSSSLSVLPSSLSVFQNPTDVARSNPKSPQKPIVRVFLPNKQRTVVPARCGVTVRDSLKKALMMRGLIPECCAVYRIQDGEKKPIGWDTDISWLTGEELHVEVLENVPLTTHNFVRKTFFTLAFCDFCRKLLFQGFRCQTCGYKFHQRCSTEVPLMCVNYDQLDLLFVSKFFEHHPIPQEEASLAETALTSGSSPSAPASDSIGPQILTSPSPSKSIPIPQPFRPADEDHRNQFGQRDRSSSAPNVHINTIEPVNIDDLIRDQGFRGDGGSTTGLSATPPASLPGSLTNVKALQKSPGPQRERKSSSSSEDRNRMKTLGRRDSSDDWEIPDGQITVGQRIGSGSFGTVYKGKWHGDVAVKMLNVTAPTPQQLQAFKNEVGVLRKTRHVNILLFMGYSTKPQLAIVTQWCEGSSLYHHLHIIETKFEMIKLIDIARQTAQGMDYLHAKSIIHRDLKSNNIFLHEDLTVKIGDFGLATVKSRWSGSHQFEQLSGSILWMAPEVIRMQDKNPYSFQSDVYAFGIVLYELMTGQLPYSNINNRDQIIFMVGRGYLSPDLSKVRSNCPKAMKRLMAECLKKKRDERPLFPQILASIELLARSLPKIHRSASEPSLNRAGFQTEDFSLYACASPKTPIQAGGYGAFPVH

[19] = target: Tyrosine-protein kinase FRK (Homo sapiens) (UniProt P42685); details: Compound concentration 100.0 nM
[20] = target: Ribosomal protein S6 kinase alpha-6 (Homo sapiens) (UniProt Q9UK32); details: Compound concentration 100.0 nM
[21] = target: T1, Protein kinase C epsilon type (Homo sapiens) (UniProt Q02156); details: Compound concentration 100.0 nM
T1 sequence (whole entry): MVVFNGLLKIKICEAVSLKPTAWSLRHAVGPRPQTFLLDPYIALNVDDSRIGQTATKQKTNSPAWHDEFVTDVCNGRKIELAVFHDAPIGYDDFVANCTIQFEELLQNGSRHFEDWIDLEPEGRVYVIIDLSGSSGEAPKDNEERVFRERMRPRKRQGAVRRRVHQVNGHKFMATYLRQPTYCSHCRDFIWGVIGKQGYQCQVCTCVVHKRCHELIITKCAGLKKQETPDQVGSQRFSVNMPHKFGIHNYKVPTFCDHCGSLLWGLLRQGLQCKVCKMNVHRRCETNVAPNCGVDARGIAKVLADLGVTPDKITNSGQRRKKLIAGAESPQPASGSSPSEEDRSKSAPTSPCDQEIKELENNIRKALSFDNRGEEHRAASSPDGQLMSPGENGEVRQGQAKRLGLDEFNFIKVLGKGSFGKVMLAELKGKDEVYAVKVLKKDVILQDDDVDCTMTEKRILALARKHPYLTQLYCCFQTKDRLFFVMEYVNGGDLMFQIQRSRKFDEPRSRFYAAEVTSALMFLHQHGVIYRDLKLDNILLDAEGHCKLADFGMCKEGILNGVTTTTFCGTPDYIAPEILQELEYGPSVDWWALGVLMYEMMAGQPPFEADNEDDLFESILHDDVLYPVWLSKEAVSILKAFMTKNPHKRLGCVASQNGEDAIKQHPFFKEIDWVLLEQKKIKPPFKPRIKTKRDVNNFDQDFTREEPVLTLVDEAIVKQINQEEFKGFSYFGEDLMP

[22] = target: Serine/threonine-protein kinase pim-3 (Homo sapiens) (UniProt Q86V86); details: Compound concentration 100.0 nM
[23] = target: 5-hydroxytryptamine receptor 1D (Homo sapiens) (UniProt P28221); details: Compound concentration 10.0 uM
[24] = target: Inhibitor of nuclear factor kappa-B kinase subunit alpha (Homo sapiens) (UniProt O15111); details: Compound concentration 100.0 nM
[25] = target: Serine/threonine-protein kinase PAK 6 (Homo sapiens) (UniProt Q9NQU5); details: Compound concentration 100.0 nM
[26] = target: High affinity nerve growth factor receptor (Homo sapiens) (UniProt P04629); details: Compound concentration 100.0 nM
Sequence of High affinity nerve growth factor receptor (Homo sapiens) (P04629 33-796 limits assumed): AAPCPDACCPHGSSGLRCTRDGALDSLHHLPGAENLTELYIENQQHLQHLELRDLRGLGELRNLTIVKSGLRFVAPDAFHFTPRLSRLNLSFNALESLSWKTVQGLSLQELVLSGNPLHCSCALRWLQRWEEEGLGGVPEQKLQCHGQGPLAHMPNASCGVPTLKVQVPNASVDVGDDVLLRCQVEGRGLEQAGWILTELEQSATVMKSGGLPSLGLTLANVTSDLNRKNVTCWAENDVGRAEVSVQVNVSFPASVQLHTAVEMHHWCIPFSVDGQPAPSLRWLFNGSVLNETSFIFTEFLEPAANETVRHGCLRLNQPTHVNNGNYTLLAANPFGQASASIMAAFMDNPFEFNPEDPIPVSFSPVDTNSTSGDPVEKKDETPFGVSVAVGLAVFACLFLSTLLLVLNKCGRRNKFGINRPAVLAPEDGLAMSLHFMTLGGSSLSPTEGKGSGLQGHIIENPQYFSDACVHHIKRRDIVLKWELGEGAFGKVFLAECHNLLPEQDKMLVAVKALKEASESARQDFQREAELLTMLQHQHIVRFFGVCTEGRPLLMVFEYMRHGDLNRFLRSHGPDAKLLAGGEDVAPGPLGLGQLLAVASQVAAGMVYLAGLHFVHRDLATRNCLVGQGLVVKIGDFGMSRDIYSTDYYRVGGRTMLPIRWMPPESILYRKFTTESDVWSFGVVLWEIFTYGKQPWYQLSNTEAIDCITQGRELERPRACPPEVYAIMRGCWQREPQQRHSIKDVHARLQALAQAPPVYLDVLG

[27] = target: Serine/threonine-protein kinase N1 (Homo sapiens) (UniProt Q16512); details: Compound concentration 100.0 nM
Sequence of Serine/threonine-protein kinase N1 (Homo sapiens) (Q16512 2-942 limits assumed): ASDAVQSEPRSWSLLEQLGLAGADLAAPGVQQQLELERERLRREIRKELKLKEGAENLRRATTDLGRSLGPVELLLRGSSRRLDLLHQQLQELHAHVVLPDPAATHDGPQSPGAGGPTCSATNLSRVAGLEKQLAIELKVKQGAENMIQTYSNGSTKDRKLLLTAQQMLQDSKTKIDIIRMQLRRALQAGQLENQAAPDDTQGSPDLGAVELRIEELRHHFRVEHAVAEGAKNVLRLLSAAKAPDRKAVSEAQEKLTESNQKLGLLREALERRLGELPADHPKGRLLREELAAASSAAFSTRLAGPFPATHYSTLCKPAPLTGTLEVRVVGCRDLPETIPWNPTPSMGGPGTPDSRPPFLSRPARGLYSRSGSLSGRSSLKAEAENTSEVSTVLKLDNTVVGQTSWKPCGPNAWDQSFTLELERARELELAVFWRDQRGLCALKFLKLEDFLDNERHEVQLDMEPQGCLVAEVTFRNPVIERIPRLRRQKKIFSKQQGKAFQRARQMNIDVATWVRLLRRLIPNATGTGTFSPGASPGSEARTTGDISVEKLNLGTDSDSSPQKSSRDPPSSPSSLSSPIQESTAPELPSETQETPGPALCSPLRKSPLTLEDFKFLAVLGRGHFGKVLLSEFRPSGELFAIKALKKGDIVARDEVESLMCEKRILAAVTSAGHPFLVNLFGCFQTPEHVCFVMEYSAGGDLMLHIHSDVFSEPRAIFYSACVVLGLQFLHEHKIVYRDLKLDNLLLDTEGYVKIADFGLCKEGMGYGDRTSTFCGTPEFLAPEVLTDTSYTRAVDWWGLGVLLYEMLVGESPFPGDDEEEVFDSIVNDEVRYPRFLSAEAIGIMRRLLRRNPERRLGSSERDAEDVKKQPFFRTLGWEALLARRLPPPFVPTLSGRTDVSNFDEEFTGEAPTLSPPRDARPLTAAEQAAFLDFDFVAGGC

[28] = target: Muscarinic acetylcholine receptor M2 (Homo sapiens) (UniProt P08172); details: Compound concentration 10.0 uM
Sequence of Muscarinic acetylcholine receptor M2 (Homo sapiens) (P08172 whole entry): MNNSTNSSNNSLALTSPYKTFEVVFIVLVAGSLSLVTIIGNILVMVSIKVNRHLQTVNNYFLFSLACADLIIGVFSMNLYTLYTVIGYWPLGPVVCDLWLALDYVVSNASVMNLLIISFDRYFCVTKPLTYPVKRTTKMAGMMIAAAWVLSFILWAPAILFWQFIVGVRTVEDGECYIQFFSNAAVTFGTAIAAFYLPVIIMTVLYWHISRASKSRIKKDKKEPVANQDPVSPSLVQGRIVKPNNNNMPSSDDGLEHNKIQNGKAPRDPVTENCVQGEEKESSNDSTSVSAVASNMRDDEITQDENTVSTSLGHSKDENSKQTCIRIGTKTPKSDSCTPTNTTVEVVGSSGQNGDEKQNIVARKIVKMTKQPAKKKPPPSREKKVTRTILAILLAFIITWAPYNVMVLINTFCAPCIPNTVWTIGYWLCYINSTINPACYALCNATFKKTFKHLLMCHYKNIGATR

[29] = target: Beta-adrenergic receptor kinase 1 (Homo sapiens) (UniProt P25098); details: Compound concentration 100.0 nM
[30] = target: Wee1-like protein kinase 2 (Homo sapiens) (UniProt P0C1S8); details: Compound concentration 100.0 nM
[31] = target: Serine/threonine-protein kinase LATS1 (Homo sapiens) (UniProt O95835); details: Compound concentration 100.0 nM
[32] = target: 5'-AMP-activated protein kinase catalytic subunit alpha-2 (Homo sapiens) (UniProt P54646); details: Compound concentration 100.0 nM
[33] = target: Hepatocyte growth factor receptor (Homo sapiens) (UniProt P08581); details: Compound concentration 100.0 nM
[34] = target: Cyclin-dependent kinase 15 (Homo sapiens) (UniProt Q96Q40); details: Compound concentration 100.0 nM
[35] = target: Inhibitor of nuclear factor kappa-B kinase subunit beta (Homo sapiens) (UniProt O14920); details: Compound concentration 100.0 nM

Question: For `Cc1c[nH]c2nccc(Oc3c(F)cc(Nc4cc(Cl)nc(N)n4)cc3F)c12` [BAY-549], which residual activity [1] is on record?
Answer: 79%

Question: What about the residual activity [2] of the same compound?
Answer: 96%

Question: What about the residual activity [3] of the same compound?
Answer: 94%

Question: And the residual activity [4]?
Answer: 89%

Question: What about the residual activity [5] of the same compound?
Answer: 90%

Question: What about the residual activity [6] of the same compound?
Answer: 98%

Question: And the residual activity [7]?
Answer: 88%

Question: And the residual activity [8]?
Answer: 84%

Question: And the residual activity [9]?
Answer: 73%

Question: What about the residual activity [10] of the same compound?
Answer: 87%

Question: What about the residual activity [11] of the same compound?
Answer: 91%

Question: What about the residual activity [12] of the same compound?
Answer: 95%

Question: And the residual activity [13]?
Answer: 77%

Question: And the residual activity [14]?
Answer: 100%

Question: And the residual activity [15]?
Answer: 82%

Question: And the residual activity [16]?
Answer: 75%

Question: What about the residual activity [17] of the same compound?
Answer: 96%

Question: What about the residual activity [18] of the same compound?
Answer: 98%

Question: What about the residual activity [19] of the same compound?
Answer: 100%

Question: What about the residual activity [20] of the same compound?
Answer: 99%

Question: What about the residual activity [21] of the same compound?
Answer: 96%

Question: And the residual activity [22]?
Answer: 100%

Question: What about the inhibition [23] of the same compound?
Answer: 45%

Question: And the residual activity [24]?
Answer: 66%

Question: What about the residual activity [25] of the same compound?
Answer: 82%

Question: And the residual activity [26]?
Answer: 81%

Question: And the residual activity [27]?
Answer: 72%

Question: What about the inhibition [28] of the same compound?
Answer: 7.41%

Question: What about the residual activity [29] of the same compound?
Answer: 98%

Question: What about the residual activity [30] of the same compound?
Answer: 91%

Question: What about the residual activity [31] of the same compound?
Answer: 42%

Question: What about the residual activity [32] of the same compound?
Answer: 89%

Question: And the residual activity [33]?
Answer: 83%

Question: What about the residual activity [34] of the same compound?
Answer: 76%

Question: What about the residual activity [35] of the same compound?
Answer: 69%

Question: `Cn1cc(Cl)c2c(Oc3c(F)cc(Nc4cc(Cl)nc(N)n4)cc3F)ccnc21` [BAY-4900] was tested. Which residual activity [1] did it give?
Answer: 100%

Question: What about the residual activity [2] of the same compound?
Answer: 100%

Question: What about the residual activity [3] of the same compound?
Answer: 87%

Question: And the residual activity [4]?
Answer: 82%

Question: What about the residual activity [5] of the same compound?
Answer: 98%

Question: And the residual activity [6]?
Answer: 100%

Question: What about the residual activity [7] of the same compound?
Answer: 91%

Question: And the residual activity [8]?
Answer: 83%

Question: What about the residual activity [9] of the same compound?
Answer: 77%

Question: What about the residual activity [10] of the same compound?
Answer: 79%

Question: What about the residual activity [11] of the same compound?
Answer: 91%

Question: What about the residual activity [12] of the same compound?
Answer: 100%

Question: What about the residual activity [13] of the same compound?
Answer: 100%

Question: What about the residual activity [14] of the same compound?
Answer: 96%

Question: What about the residual activity [15] of the same compound?
Answer: 100%

Question: What about the residual activity [16] of the same compound?
Answer: 83%

Question: And the residual activity [17]?
Answer: 100%

Question: And the residual activity [18]?
Answer: 100%

Question: What about the residual activity [19] of the same compound?
Answer: 81%

Question: What about the residual activity [20] of the same compound?
Answer: 100%

Question: And the residual activity [21]?
Answer: 91%

Question: And the residual activity [22]?
Answer: 100%

Question: What about the inhibition [23] of the same compound?
Answer: -5.84%

Question: What about the residual activity [24] of the same compound?
Answer: 85%

Question: And the residual activity [25]?
Answer: 100%

Question: And the residual activity [26]?
Answer: 74%

Question: What about the residual activity [27] of the same compound?
Answer: 100%

Question: What about the inhibition [28] of the same compound?
Answer: 0.85%

Question: And the residual activity [29]?
Answer: 81%

Question: What about the residual activity [30] of the same compound?
Answer: 93%

Question: What about the residual activity [31] of the same compound?
Answer: 69%

Question: What about the residual activity [32] of the same compound?
Answer: 97%

Question: And the residual activity [33]?
Answer: 90%

Question: And the residual activity [34]?
Answer: 94%

Question: And the residual activity [35]?
Answer: 87%

Source: ChEMBL document CHEMBL4507274 (2021)
